According to patent US12391680B2, “Compounds and compositions for the treatment of cystic fibrosis” (FONDAZIONE ISTITUTO ITALIANO DI TECNOLOGIA, priority 2019, dated 2025):
pEC50: −log10 of the molar value.

Biological target: mutant CFTR (Homo sapiens, UniProt P13569)
Assay: Fluorescence assay for CFTR activity (halide-sensitive YFP, HS-YFP)
Type: cell-based
Settings: CFBE41o- and FRT cells with stable expression of mutant CFTR
Method: Mutant CFTR activity was determined with the functional assay based on the halide-sensitive yellow fluorescent protein, HS—YFP (Galietta et al., FEBS Lett 499:220-224, 2001). CFBE41o- and FRT cells with stable expression of mutant CFTR and HS—YFP were plated on clear-bottom 96-well black microplates (Code 3603, Corning Life Sciences) at a density of 50,000 cells/well and kept at 37° C. in 5% CO2 for 24 hours.
For the corrector assay, cells were treated for further 24 hours with test compounds, vehicle (DMSO), or the positive control VX-809. After treatment, the culture medium was removed and cells in each well were stimulated for 30 min at 37° C. with 60 μL PBS (containing 137 mM NaCl, 2.7 mM KCl, 8.1 mM Na2HPO4, 1.5 mM KH2PO4, 1 mM CaCl2, and 0.5 mM MgCl2) plus forskolin (20 μM) and genistein (50 μM).
For determination of potentiator activity on F508del-CFTR, cells were incubated for 24 hours at 27° C. to allow trafficking of the mutant protein to plasma membrane. Cells were then stimulated with for 30 min with PBS containing forskolin (20 μM) plus the compound to be tested at the desired concentration. For determination of potentiator activity on G551D-CFTR or G1349D-CFTR, cells were directly stimulated with forskolin plus test compound without previous incubation at low temperature. At the time of assay, microplates carrying CFBE41o- or FRT cells were transferred to microplate readers (BMG Labtech) equipped with high-quality excitation (HQ500/20×: 500±10 nm) and emission (HQ535/30M: 535±15 nm) filters for YFP (Chroma Technology). The assay consisted of a continuous 14 s fluorescence reading with 2 s before and 12 s after injection of an iodide-containing solution (165 μL of a modified PBS containing I^− instead of Cl^−; final I^− concentration in the well: 100 mM). Data were normalized to the initial background-subtracted fluorescence. Enhanced CFTR activity, induced by correctors and/or potentiators, results in accelerated I^− influx that in turn causes faster HS—YFP quenching (Pedemonte et al., Mol Pharmacol 68:1736-1746, 2005; Pedemonte et al., J Clin Invest 115:2564-2571, […]). To determine fluorescence quenching rate associated with I^− influx, the final 10 s of data for each well were fitted with an exponential function to extrapolate initial slope (dF/dt).
EC50 obtained are illustrated in Table 1 wherein+: EC50>2 μM; ++: 1.0 μM <EC50<2 μM; +++: EC50<1 μM.

Sequence of mutant CFTR (P13569 with tags, fused parts or gaps DEL508-508): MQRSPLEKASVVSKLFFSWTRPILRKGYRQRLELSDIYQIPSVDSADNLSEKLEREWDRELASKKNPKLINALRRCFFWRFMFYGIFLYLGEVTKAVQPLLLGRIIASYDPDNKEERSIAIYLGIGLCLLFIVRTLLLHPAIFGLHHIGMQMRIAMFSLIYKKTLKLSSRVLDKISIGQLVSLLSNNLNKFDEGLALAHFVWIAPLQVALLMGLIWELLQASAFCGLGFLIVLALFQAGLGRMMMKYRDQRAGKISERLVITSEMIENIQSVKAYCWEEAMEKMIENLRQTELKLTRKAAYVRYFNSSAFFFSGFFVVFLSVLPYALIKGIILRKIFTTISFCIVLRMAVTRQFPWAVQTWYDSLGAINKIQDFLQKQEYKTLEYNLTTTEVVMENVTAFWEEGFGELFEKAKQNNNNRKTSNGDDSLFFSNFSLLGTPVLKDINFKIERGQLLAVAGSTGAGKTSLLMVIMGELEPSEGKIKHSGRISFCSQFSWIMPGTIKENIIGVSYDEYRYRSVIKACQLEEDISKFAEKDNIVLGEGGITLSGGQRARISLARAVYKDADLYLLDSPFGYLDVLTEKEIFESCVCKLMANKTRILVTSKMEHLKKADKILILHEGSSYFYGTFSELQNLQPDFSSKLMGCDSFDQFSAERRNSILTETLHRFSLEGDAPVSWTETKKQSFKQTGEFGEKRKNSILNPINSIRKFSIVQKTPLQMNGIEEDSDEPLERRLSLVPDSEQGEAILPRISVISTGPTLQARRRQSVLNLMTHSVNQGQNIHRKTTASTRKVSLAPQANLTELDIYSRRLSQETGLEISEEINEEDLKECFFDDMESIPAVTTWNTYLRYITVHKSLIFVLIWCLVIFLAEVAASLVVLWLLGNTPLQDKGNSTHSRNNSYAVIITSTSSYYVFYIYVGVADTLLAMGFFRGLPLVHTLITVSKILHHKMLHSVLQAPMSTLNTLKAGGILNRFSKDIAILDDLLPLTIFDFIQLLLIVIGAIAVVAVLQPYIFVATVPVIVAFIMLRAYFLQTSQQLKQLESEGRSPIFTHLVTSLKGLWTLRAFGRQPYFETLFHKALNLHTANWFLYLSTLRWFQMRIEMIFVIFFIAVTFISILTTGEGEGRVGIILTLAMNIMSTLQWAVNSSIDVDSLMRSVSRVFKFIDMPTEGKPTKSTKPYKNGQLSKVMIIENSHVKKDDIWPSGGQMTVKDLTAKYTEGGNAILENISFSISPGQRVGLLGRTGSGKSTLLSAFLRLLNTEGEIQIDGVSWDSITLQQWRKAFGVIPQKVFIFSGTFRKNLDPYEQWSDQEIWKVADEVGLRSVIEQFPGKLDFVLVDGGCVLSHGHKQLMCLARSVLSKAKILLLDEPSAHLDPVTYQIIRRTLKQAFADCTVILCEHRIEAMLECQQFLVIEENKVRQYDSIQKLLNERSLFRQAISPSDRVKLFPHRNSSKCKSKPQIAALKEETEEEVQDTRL

Work on NC(=O)c1sc2ccccc2c1C1CN(S(=O)(=O)C2CCCCC2)CCO1 (racemic) [compound 016, rac-3-[4-cyclohexylsulfonylmorpholin-2-yl]benzothiophene-2-carboxamide] yielded a pEC50 of under 5.70.
With CC(C)(C)OC(=O)N1CCC(S(=O)(=O)N2CCOC(c3c(C(N)=O)sc4ccccc34)C2)CC1 (racemic) [compound 064, rac-tert-butyl 4-[2-(2-carbamoylbenzothiophen-3-yl)morpholin-4-yl]sulfonylpiperidine-1-carboxylate] the pEC50 was under 5.70.
NC(=O)c1sc2ccccc2c1C1CN(S(=O)(=O)c2ccc(S(F)(F)(F)(F)F)cc2)CCO1 (racemic) [compound 060, rac-3-[4-[4-(pentafluoro-lambda6-sulfanyl)phenyl]sulfonylmorpholin-2-yl]benzothiophene-2-carboxamide] gave a pEC50 of 5.70 to 6.00.
Molecule CC(C)(C)c1ccc(S(=O)(=O)N2CCOC(c3c(C(N)=O)sc4ccccc34)C2)cc1 (racemic) [compound 036, rac-3-[4-(4-tert-butylphenyl)sulfonylmorpholin-2-yl]benzothiophene-2-carboxamide] has a pEC50 of over 6.00.
With COc1ccc(S(=O)(=O)N2CCOC(c3c(C(N)=O)sc4ccccc34)C2)cc1 (racemic) [compound 010, rac-3-[4-(4-methoxyphenyl)sulfonylmorpholin-2-yl]benzothiophene-2-carboxamide] the pEC50 was 5.70 to 6.00.
For CNC(=O)c1sc2ccccc2c1C1CN(S(=O)(=O)C2CCCC2)CCO1 (stereo not shown) [compound 081, 3-(4-cyclopentanesulfonyl-morpholin-2-yl)-benzo[b]thiophene-2-carboxylic acid methylamide], the pEC50 was under 5.70.
Molecule Cc1ccc(S(=O)(=O)N2CCO[C@H](c3c(C(N)=O)sc4ccccc34)C2)cc1F (single isomer, unassigned) [compound 073] has a pEC50 of over 6.00.
Work on COc1ccc(S(=O)(=O)N2CCOC(c3c(C(N)=O)sc4ccccc34)C2)cc1F (racemic) [compound 053, rac-3-[4-(3-fluoro-4-methoxy-phenyl)sulfonylmorpholin-2-yl]benzothiophene-2-carboxamide] yielded a pEC50 of under 5.70.
O=C(NCCO)c1sc2ccccc2c1C1CN(S(=O)(=O)c2ccccc2)CCO1 (stereo not shown) [compound 080, N-(2-hydroxyethyl)-3-[4-(phenylsulfonyl)-2-morpholinyl]-1-benzothiophene-2-carboxamide] was tested, and the pEC50 was under 5.70.
With Cc1ccc(S(=O)(=O)N2CCO[C@@H](c3c(C(N)=O)sc4ccccc34)C2)cc1F (single isomer, unassigned) [compound 072] the pEC50 was under 5.70.
COc1ccc(S(=O)(=O)N2CCOC(c3c(C(N)=O)sc4ccccc34)C2)cc1C (racemic) [compound 023, rac-3-[4-(4-methoxy-3-methyl-phenyl)sulfonylmorpholin-2-yl]benzothiophene-2-carboxamide] was tested, and the pEC50 was under 5.70.
For Cc1noc(C)c1S(=O)(=O)N1CCOC(c2c(C(N)=O)sc3ccccc23)C1 (racemic) [compound 008, rac-3-[4-(3,5-dimethylisoxazol-4-yl)sulfonylmorpholin-2-yl]benzothiophene-2-carboxamide], the pEC50 was under 5.70.
COc1cccc(S(=O)(=O)N2CCOC(c3c(C(N)=O)sc4ccccc34)C2)c1 (racemic) [compound 048, rac-3-[4-(3-methoxyphenyl)sulfonylmorpholin-2-yl]benzothiophene-2-carboxamide] was tested, and the pEC50 was under 5.70.
Cc1cc(S(=O)(=O)N2CCO[C@@H](c3c(C(N)=O)sc4ccccc34)C2)ccc1F (single isomer, unassigned) [compound 014] showed a pEC50 of under 5.70.
In the case of NC(=O)c1sc2ccccc2c1[C@H]1CN(S(=O)(=O)c2ccc(C(F)(F)F)c(F)c2)CCO1 (single isomer, unassigned) [compound 055], the pEC50 was under 5.70.
Cc1ccc(S(=O)(=O)N2CCOC(c3c(C(N)=O)sc4ccccc34)C2)cc1 (racemic) [compound 033, rac-3-[4-(p-tolylsulfonyl)morpholin-2-yl]benzothiophene-2-carboxamide] showed a pEC50 of over 6.00.
